Source: patent publication US10239843B2 (CANCER RESEARCH TECHNOLOGY LIMITED, priority 2014, dated 2019)
Read-outs that look alike come from different tables or passages of the source.

Legend:
Human Full Length PARG = Human Full Length PARG (Homo sapiens (Human), UniProt Q86W56); experiment: PARG enzyme assay (TR-FRET); type: biochemical; details: read-out: PARG Biochem IC50
PARG in HeLa cell line = experiment: PARG cell assay (PAR chain immunofluorescence after MMS); type: cell-based; details: HeLa cells, MMS treatment, read-out: PARG Cell IC50
How it was run: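 HeLa cells were dosed with compound for 1 h, then given MMS at 50 μg/mL final for a further hour. Cells were methanol-fixed, permeabilised and stained overnight at 4° C with anti-PAR monoclonal antibody. Retained nuclear PAR chains, detected by indirect immunofluorescence, indicate PARG inhibition.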

Sequence of Human Full Length PARG (Q86W56 whole entry): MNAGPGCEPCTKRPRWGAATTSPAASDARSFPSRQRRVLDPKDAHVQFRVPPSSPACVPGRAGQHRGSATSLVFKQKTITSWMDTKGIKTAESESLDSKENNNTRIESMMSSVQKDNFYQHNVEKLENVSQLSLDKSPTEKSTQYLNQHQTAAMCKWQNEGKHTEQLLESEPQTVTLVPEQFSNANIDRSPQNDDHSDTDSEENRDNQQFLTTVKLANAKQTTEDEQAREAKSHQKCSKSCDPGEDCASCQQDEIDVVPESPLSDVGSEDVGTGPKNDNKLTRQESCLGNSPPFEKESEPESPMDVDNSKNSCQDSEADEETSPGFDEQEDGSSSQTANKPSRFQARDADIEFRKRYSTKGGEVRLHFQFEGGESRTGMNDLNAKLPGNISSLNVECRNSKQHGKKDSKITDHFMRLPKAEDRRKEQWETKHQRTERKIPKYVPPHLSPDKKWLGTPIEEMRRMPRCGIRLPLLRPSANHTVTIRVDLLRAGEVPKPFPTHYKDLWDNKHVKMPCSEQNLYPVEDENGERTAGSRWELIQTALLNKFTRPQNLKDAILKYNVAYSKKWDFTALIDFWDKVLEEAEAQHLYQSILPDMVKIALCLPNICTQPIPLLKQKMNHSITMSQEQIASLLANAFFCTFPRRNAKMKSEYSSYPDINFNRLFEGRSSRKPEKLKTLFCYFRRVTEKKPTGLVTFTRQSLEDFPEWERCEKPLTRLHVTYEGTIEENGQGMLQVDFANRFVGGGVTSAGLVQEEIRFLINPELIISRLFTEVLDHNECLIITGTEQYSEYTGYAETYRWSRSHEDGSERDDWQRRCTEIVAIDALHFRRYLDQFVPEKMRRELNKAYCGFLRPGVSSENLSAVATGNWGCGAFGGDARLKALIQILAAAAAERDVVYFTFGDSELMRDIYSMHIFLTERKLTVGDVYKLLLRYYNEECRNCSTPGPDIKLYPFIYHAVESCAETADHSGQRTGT

| SMILES | IC50 (Human Full Length PARG) [nM] | IC50 (PARG in HeLa cell line; Homo sapiens) [nM] | IC50 (PARG in HeLa cell line) [nM] |
| --- | --- | --- | --- |
| Cc1cncc(Cn2c(=O)c3cc(S(=O)(=O)NC4(C)CC4)ccc3n(C)c2=O)c1 [Example 418, 1-Methyl-N-(1-methylcyclopropyl)-3-[(5-methyl-3-pyridyl)methyl]-2,4-dioxo-quinazoline-6-sulfonamide] | 2270 | 2110 |  |
| Cc1cc(Cn2c(=O)c3cc(S(=O)(=O)NC4(C)CC4)ccc3n(CC3(C#N)CC3)c2=O)on1 [Example 420, 1-[(1-Cyanocyclopropyl)methyl]-N-(1-methylcyclopropyl)-3-[(3-methylisoxazol-5-yl)methyl]-2,4-dioxo-quinazoline-6-sulfonamide] | 140 | 163 |  |
| Cc1cc(Cn2c(=O)c3cc(S(=O)(=O)NC4(C)CC4)ccc3n(CC3CCC(=O)CC3)c2=O)on1 [Example 421, N-(1-Methylcyclopropyl)-3-[(3-methylisoxazol-5-yl)methyl]-2,4-dioxo-1-[(4-oxocyclohexyl)methyl]quinazoline-6-sulfonamide] | 193 |  | 589 |
| Cn1cc(Cn2c(=O)[nH]c3c(Br)cc(S(=O)(=O)NC4(C)CC4)cc3c2=O)cn1 [Example 422, 8-Bromo-N-(1-methylcyclopropyl)-3-[(1-methylpyrazol-4-yl)methyl]-2,4-dioxo-1H-quinazoline-6-sulfonamide] | 512 | 611 |  |
| Cc1ccc(Cn2c(=O)c3cc(S(=O)(=O)NC4(C)CC4)ccc3n(C)c2=O)cn1 [Example 423, 1-Methyl-N-(1-methylcyclopropyl)-3-[(6-methyl-3-pyridyl)methyl]-2,4-dioxo-quinazoline-6-sulfonamide] | 1600 | 1350 |  |
| Cn1cc(Cn2c(=O)[nH]c3c(C(N)=O)cc(S(=O)(=O)NC4(C)CC4)cc3c2=O)cn1 [Example 424, 6-[(1-Methylcyclopropyl)sulfamoyl]-3-[(1-methylpyrazol-4-yl)methyl]-2,4-dioxo-1H-quinazoline-8-carboxamide] | 223 | 13000 |  |
| Cc1cc(Cn2c(=O)c3cc(S(=O)(=O)NC4(C)CC4)ccc3n(CC3CN(C=O)C3)c2=O)on1 [Example 425, 1-[(1-Formylazetidin-3-yl)methyl]-N-(1-methylcyclopropyl)-3-[(3-methylisoxazol-5-yl)methyl]-2,4-dioxo-quinazoline-6-sulfonamide] | 214 | 7810 |  |
| C#CC1(NS(=O)(=O)c2ccc3c(c2)c(=O)n(Cc2cnn(C)c2)c(=O)n3C)CC1 [Example 427, N-(1-Ethynylcyclopropyl)-1-methyl-3-[(1-methylpyrazol-4-yl)methyl]-2,4-dioxo-quinazoline-6-sulfonamide] | 5400 | 1260 |  |
| CC(=O)NCc1cc(S(=O)(=O)NC2(C)CC2)cc2c(=O)n(Cc3cnn(C)c3)c(=O)[nH]c12 [Example 428, N-[[6-[(1-Methylcyclopropyl)sulfamoyl]-3-[(1-methylpyrazol-4-yl)methyl]-2,4-dioxo-1H-quinazolin-8-yl]methyl]acetamide] | 494 | 27000 |  |
| CN(C)CC#Cc1cc(S(=O)(=O)NC2(C)CC2)cc2c(=O)n(Cc3cnn(C)c3)c(=O)[nH]c12 [Example 429, 8-[3-(Dimethylamino)prop-1-ynyl]-N-(1-methylcyclopropyl)-3-[(1-methylpyrazol-4-yl)methyl]-2,4-dioxo-1H-quinazoline-6-sulfonamide] | 1770 | 1520 |  |
| C#CC1(NS(=O)(=O)c2ccc3[nH]c(=O)n(Cc4cnn(C)c4)c(=O)c3c2)CC1 [Example 431, N-(1-Ethynylcyclopropyl)-3-[(1-methylpyrazol-4-yl)methyl]-2,4-dioxo-1H-quinazoline-6-sulfonamide] | 3720 |  | 3030 |
| C#CC1(NS(=O)(=O)c2ccc3c(c2)c(=O)n(Cc2cnn(C)c2)c(=O)n3CC2CC2)CC1 [Example 432, 1-(Cyclopropylmethyl)-N-(1-ethynylcyclopropyl)-3-[(1-methylpyrazol-4-yl)methyl]-2,4-dioxo-quinazoline-6-sulfonamide] | 486 |  | 261 |
| Cc1ncc(Cn2c(=O)c3cc(S(=O)(=O)NC4(C)CC4)ccc3n(C)c2=O)cn1 [Example 433, 1-Methyl-N-(1-methylcyclopropyl)-3-[(2-methylpyrimidin-5-yl)methyl]-2,4-dioxo-quinazoline-6-sulfonamide] | 3340 | 1130 |  |
| Cn1c(=O)n(Cc2cnn3ccccc23)c(=O)c2cc(S(=O)(=O)NC3(C)CC3)ccc21 [Example 434, 1-Methyl-N-(1-methylcyclopropyl)-2,4-dioxo-3-(pyrazolo[1,5-a]pyridin-3-ylmethyl)quinazoline-6-sulfonamide] | 5910 | 609 |  |
| Cn1cc(Cn2c(=O)c3cc(S(=O)(=O)NC4(C)CC4)ccc3n(CC3CC(F)(F)C3)c2=O)cn1 [Example 436, 1-[(3,3-Difluorocyclobutyl)methyl]-N-(1-methylcyclopropyl)-3-[(1-methylpyrazol-4-yl)methyl]-2,4-dioxo-quinazoline-6-sulfonamide] | 118 | 70 |  |
| CCn1c(=O)n(Cc2cnn(C)c2)c(=O)c2cc(S(=O)(=O)NC3(CF)CC3)ccc21 [Example 438, 1-Ethyl-N-[1-(fluoromethyl)cyclopropyl]-3-[(1-methylpyrazol-4-yl)methyl]-2,4-dioxo-quinazoline-6-sulfonamide] | 106 | 84 |  |
| Cn1cc(Cn2c(=O)c3cc(S(=O)(=O)NC4(CF)CC4)ccc3n(CC#N)c2=O)cn1 [Example 439, 1-(Cyanomethyl)-N-[1-(fluoromethyl)cyclopropyl]-3-[(1-methylpyrazol-4-yl)methyl]-2,4-dioxo-quinazoline-6-sulfonamide] | 310 | 420 |  |
| Cn1c(=O)n(Cc2ccnnc2)c(=O)c2cc(S(=O)(=O)NC3(C)CC3)ccc21 [Example 446, 1-Methyl-N-(1-methylcyclopropyl)-2,4-dioxo-3-(pyridazin-4-ylmethyl)quinazoline-6-sulfonamide] | 13400 | 18900 |  |
| COC(=O)c1cc(S(=O)(=O)NC2(C)CC2)cc2c(=O)n(Cc3cnn(C)c3)c(=O)[nH]c12 [Example 448, Methyl 6-[(1-methylcyclopropyl)sulfamoyl]-3-[(1-methylpyrazol-4-yl)methyl]-2,4-dioxo-1H-quinazoline-8-carboxylate] | 424 |  | 329 |

Continued by falling IC50 (Human Full Length PARG), values first:

| IC50 (Human Full Length PARG) [nM] | IC50 (PARG in HeLa cell line; Homo sapiens) [nM] | IC50 (PARG in HeLa cell line) [nM] | SMILES |
| --- | --- | --- | --- |
| 106 | 118 |  | Cn1cc(Cn2c(=O)c3cc(S(=O)(=O)NC4(CF)CC4)ccc3n(Cc3ccc(F)cc3)c2=O)cn1 [Example 419, N-[1-(Fluoromethyl)cyclopropyl]-1-[(4-fluorophenyl)methyl]-3-[(1-methylpyrazol-4-yl)methyl]-2,4-dioxo-quinazoline-6-sulfonamide] |
| 104 | 46 |  | Cn1cc(Cn2c(=O)c3cc(S(=O)(=O)NC4(C)CC4)ccc3n(CC3CC3(F)F)c2=O)cn1 (stereo not shown) [Example 435, 1-[(2,2-Difluorocyclopropyl)methyl]-N-(1-methylcyclopropyl)-3-[(1-methylpyrazol-4-yl)methyl]-2,4-dioxo-quinazoline-6-sulfonamide] |
| 102 | 417 |  | Cn1cc(Cn2c(=O)c3cc(S(=O)(=O)NC4(CF)CC4)ccc3n(CC3COC3)c2=O)cn1 [Example 445, N-[1-(Fluoromethyl)cyclopropyl]-3-[(1-methylpyrazol-4-yl)methyl]-1-(oxetan-3-ylmethyl)-2,4-dioxo-quinazoline-6-sulfonamide] |
| 68 |  | 50 | C#CCn1c(=O)n(Cc2cnn(C)c2)c(=O)c2cc(S(=O)(=O)NC3(CF)CC3)ccc21 [Example 440, N-[1-(Fluoromethyl)cyclopropyl]-3-[(1-methylpyrazol-4-yl)methyl]-2,4-dioxo-1-prop-2-ynyl-quinazoline-6-sulfonamide] |
| 63 |  | 90 | Cn1cc(Cn2c(=O)c3cc(S(=O)(=O)NC4(CF)CC4)ccc3n(CC3CC(F)(F)C3)c2=O)cn1 [Example 444, 1-[(3,3-Difluorocyclobutyl)methyl]-N-[1-(fluoromethyl)cyclopropyl]-3-[(1-methylpyrazol-4-yl)methyl]-2,4-dioxo-quinazoline-6-sulfonamide] |
| 58 | 67 |  | Cn1cc(Cn2c(=O)c3cc(S(=O)(=O)NC4(CF)CC4)ccc3n(CC3CC3(F)F)c2=O)cn1 (stereo not shown) [Example 443, 1-[(2,2-Difluorocyclopropyl)methyl]-N-[1-(fluoromethyl)cyclopropyl]-3-[(1-methylpyrazol-4-yl)methyl]-2,4-dioxo-quinazoline-6-sulfonamide] |
| 43 | 134 |  | Cn1cc(Cn2c(=O)c3cc(S(=O)(=O)NC4(CF)CC4)ccc3n(CC3CCOCC3)c2=O)cn1 [Example 442, N-[1-(Fluoromethyl)cyclopropyl]-3-[(1-methylpyrazol-4-yl)methyl]-2,4-dioxo-1-(tetrahydropyran-4-ylmethyl)quinazoline-6-sulfonamide] |
| 40 | 42 |  | Cn1cc(Cn2c(=O)c3cc(S(=O)(=O)NC4(CF)CC4)ccc3n(CC3CC3)c2=O)cn1 [Example 417, 1-(Cyclopropylmethyl)-N-[1-(fluoromethyl)cyclopropyl]-3-[(1-methylpyrazol-4-yl)methyl]-2,4-dioxo-quinazoline-6-sulfonamide] |
| 24 |  | 74 | Cc1cc(Cn2c(=O)n(Cc3cnn(C)c3)c(=O)c3cc(S(=O)(=O)NC4(CF)CC4)ccc32)on1 [Example 441, N-[1-(Fluoromethyl)cyclopropyl]-1-[(3-methylisoxazol-5-yl)methyl]-3-[(1-methylpyrazol-4-yl)methyl]-2,4-dioxo-quinazoline-6-sulfonamide] |
| 23 | 165 |  | Cc1cc(Cn2c(=O)n(Cc3cnn(C)c3)c(=O)c3cc(S(=O)(=O)NC4(CF)CC4)ccc32)n(C)n1 [Example 437, 1-[(2,5-Dimethylpyrazol-3-yl)methyl]-N-[1-(fluoromethyl)cyclopropyl]-3-[(1-methylpyrazol-4-yl)methyl]-2,4-dioxo-quinazoline-6-sulfonamide] |
